Experimental data from patent US20250074889A1, “Novel Aminobenzene Derivative Having Cancer Cell Growth Inhibitory Effect, and Preventive or Therapeutic Pharmaceutical Composition Containing Same as Active Ingredient” (Daewoong Pharmaceutical Co., Ltd., priority 2022, published 2025).
pIC50: −log10 of the molar value.

Key:
[1] = tested on: NCI-H226 human mesothelioma cell line; assay: Cell growth inhibition test (CellTiter-Glo), NCI-H226; assay type: cell-based; settings: NCI-H226 cells
Experimental: The cell growth for the compounds prepared in Examples was measured by CellTiter-Glo® Luminescent Cell Viability (Promega, Catalog #G7571) method using NCI-H226 (addexbio), NCI-H28 (Korea Cell Line Bank) and MSTO-211H (elabscience) human mesothelioma cell lines. This evaluation method is a method in which when luciferase enzyme is activated by ATP flowing out from living cells, it reacts with a luciferin substrate, and the enzyme activity at this time is measured to confirm cell viability.
Specifically, NCI-H226, NCI-H28, and MSTO-211H cells were prepared in 100 μL of cell culture medium (RPMI medium, 10% FBS, 1% P/S, 4.5 g/L D-Glucose, 2.383 g/L HEPES Buffer, L-Glutamine, 1.5 g/L Sodium Bicarbonate, 110 mg/L Sodium pyruvate) in a white clear bottom 96-well microplate. The prepared plate was incubated in a 5% CO2 incubator at 37° C. for 24 hours, and then the previously prepared compounds of Examples were finally treated at concentrations of 0.001, 0.01, 0.1, 1, and 10 μM, which was repeated three times for all treatment solutions. The plates treated with the compounds of Examples were incubated in a 5% CO2 incubator at 37° C. 100 μL/well of the substrate aqueous solution containing luciferin was added to a white clear-bottom 96 well microplate, thereby initiating an enzyme reaction. The reaction was performed at room temperature in the dark for 10 minutes, and the luminescence was measured using a Flexstation3 multi-mode microplate reader. In accordance with the instructions for the CellTiter-Glo™ Luminescednt Cell Viability, the luciferase enzyme activity, which represents the amount of ATP, was measured by a chemiluminescence method, and the inhibitory activity of the compounds according to the present invention was calculated. The results of each compound were analyzed using Microsoft Excel, and the IC50 values were calculated using GraphPad Prism software.

[2] = tested on: transcription factor TEAD; assay: Activity inhibition test of transcription factor TEAD (ONE-Glo luciferase, TEAD reporter-MCF7 cell line); assay type: cell-based; settings: Homo sapiens; TEAD Reporter-MCF7 cells, 24 hours treatment, luciferase luminescence
Experimental: The transcription factor TEAD activity of the compounds prepared in Examples was measured by the ONE-Glo™ Luciferase assay (Promega, Catalog #E6110) method using the Hippo Pathway TEAD reporter-MCF7 recombinant cell line (BPS Bioscience, Catalog #60618).
Specifically, the TEAD Reporter-MCF7 cell line contains the firefly luciferase gene whose expression is regulated under the control of TEAD response elements in the MCF7, which is a human breast cancer cell line. In the cell line, a non-phosphorylated YAP/TAZ exists in the nucleus in a non-stressed condition, which continuously induces expression of the luciferase reporter.
TEAD Reporter-MCF7 cells were prepared in 100 μL of cell culture medium (MEM medium, 10% FBS, 1% P/S, 400 μg/mL Geneticin, 1% […], 1 mM NA pyruvate, 10 μg/mL Insulin) in a white clear bottom 96-well microplate. The prepared plate was incubated in a 5% CO2 incubator at 37° C. for 24 hours, and then the previously prepared compounds of Examples were finally treated at concentrations of 0.001, 0.01, 0.1, 1, and 10 µM, which were repeated three times for all treatment solutions. The plates treated with the compounds of Examples were incubated in a 5% CO2 incubator at 37° C. for 24 hours. 100 μL/well of the substrate aqueous solution containing luciferin was added to a white clear-bottom 96 well microplate, thereby initiating an enzyme reaction. The reaction was performed at room temperature for 5 minutes, and the luminescence (integration time 1000 ms) was measured using a Flexstation3 multi-mode microplate reader. In accordance with the instructions for the ONE-Glo™ Luciferase Assay, the luciferase enzyme activity, which represents the activity of the transcription factor TEAD, was measured by a chemiluminescence method, and the inhibitory activity of the compound according to the present invention was calculated. The results of each compound were analyzed using Microsoft Excel, and the IC50 values were calculated by GraphPad Prism software.

Row | Structure (SMILES) | pIC50 [1] | pIC50 [2]
1 | C=CC(=O)Nc1ccc(Nc2ccc(Cl)c(C)n2)c(-c2cn(C)cn2)c1 [Example 49, N-(4-((5-chloro-6-methylpyridin-2-yl)amino)-3-(1-methyl-1H-imidazol-4-yl)phenyl)acrylamide] | 7.73 | 6.59
2 | C=CC(=O)Nc1ccc(Nc2cc(Cl)c(Cl)cn2)c(-c2ccncn2)c1 [Example 16, N-(4-((4,5-dichloropyridin-2-yl)amino)-3-(pyrimidin-4-yl)phenyl)acrylamide] | 6.83 | 7.16
3 | C=CC(=O)Nc1ccc(NCc2ccc(F)cc2)c(-c2ccccc2)c1 [Example 11, N-(6-((4-fluorobenzyl)amino)-[1,1′-biphenyl]-3-yl)acrylamide] | 6.89 | 7.55
4 | C=CC(=O)Nc1ccc(NCCc2nccs2)c(/C=C/c2ccc(F)cc2)c1 [Example 23, (E)-N-(3-(4-fluorostyryl)-4-((2-(thiazol-2-yl)ethyl)amino)phenyl)acrylamide] | 7.26 | 7.32
5 | C=CC(=O)Nc1ccc(Nc2ccc(C(F)(F)F)cc2)c(-c2ccn(C)n2)c1 [Example 42, N-(3-(1-methyl-1H-pyrazol-3-yl)-4-((4-(trifluoromethyl)phenyl)amino)phenyl)acrylamide] | 8.33 | 8.15
6 | C=CC(=O)Nc1ccc(Nc2ccc(Cl)cn2)c(-c2cn(C)cn2)c1 [Example 50, N-(4-((5-chloropyridin-2-yl)amino)-3-(1-methyl-1H-imidazol-4-yl)phenyl)acrylamide] | 7.98 | 7.06
7 | C=CC(=O)Nc1ccc(Nc2ccc(C(F)(F)F)c(Cl)c2)c(-c2cn(C)cn2)c1 [Example 43, N-(4-((3-chloro-4-(trifluoromethyl)phenyl)amino)-3-(1-methyl-1H-imidazol-4-yl)phenyl)acrylamide] | 8.13 | 7.48
8 | C=CC(=O)Nc1cnc(NCCc2nccs2)c(/C=C/c2ccc(F)cc2)c1 [Example 27, (E)-N-(5-(4-fluorostyryl)-6-((2-(thiazol-2-yl)ethyl)amino)pyridin-3-yl)acrylamide] | 6.01 | 7.52
9 | C=CC(=O)Nc1ccc(Nc2cc(C(F)(F)F)ccn2)c(-c2ccn(C)n2)c1 [Example 54, N-(3-(1-methyl-1H-pyrazol-3-yl)-4-((4-(trifluoromethyl)pyridin-2-yl)amino)phenyl)acrylamide] | 7.93 | 7.63
10 | C=CC(=O)Nc1ccc(Nc2cc(Cl)c(Cl)cn2)c(-c2cn(C)cn2)c1 [Example 10, N-(4-((4,5-dichloropyridin-2-yl)amino)-3-(1-methyl-1H-imidazol-4-yl)phenyl)acrylamide] | 8.00 | 7.64
11 | C=CC(=O)Nc1ccc(Nc2ncc(C(F)(F)F)cc2Cl)c(-c2cn(C)cn2)c1 [Example 9, N-(4-((3-chloro-5-(trifluoromethyl)pyridin-2-yl)amino)-3-(1-methyl-1H-imidazol-4-yl)phenyl)acrylamide] | 7.59 | 7.10
12 | C#Cc1ccc(Nc2ccc(NC(=O)C=C)cc2-c2ccn(C)n2)nc1 [Example 34, N-(4-((5-ethynylpyridin-2-yl)amino)-3-(1-methyl-1H-pyrazol-3-yl)phenyl)acrylamide] | 7.50 | 8.24
13 | C=CC(=O)Nc1ccc(Nc2cc(Cl)c(Cl)cn2)c(-c2ccccn2)c1 [Example 8, N-(4-((4,5-dichloropyridin-2-yl)amino)-3-(pyridin-2-yl)phenyl)acrylamide] | 7.85 | 7.81
14 | C=CC(=O)Nc1ccc(Nc2ccc(OC(F)(F)F)cc2)c(-c2cn(C)cn2)c1 [Example 45, N-(3-(1-methyl-1H-imidazol-4-yl)-4-((4-(trifluoromethoxy)phenyl)amino)phenyl)acrylamide] | 7.47 | 6.95
15 | C=CC(=O)Nc1ccc(Nc2ncc(C(F)(F)F)cc2Cl)c(-c2ccccn2)c1 [Example 7, N-(4-((3-chloro-5-(trifluoromethyl)pyridin-2-yl)amino)-3-(pyridin-2-yl)phenyl)acrylamide] | 6.91 | 7.27
